Tests used:
[1] = test system: HCT116 cells, MKN45 cells; test: Test C: Measurement of cell proliferation by 14C-thymidine pulse; type: cell-based; conditions: 14C-thymidine incorporation, 96 h of treatment; cell line not given
Method: (§1) Stop the reaction with 100 μl of stop solution. Read without delay at […], 0.1 second on Wallac Victor plate reader. • C) Test C: Measurement of cell proliferation by ^14c-thymidine pulse
The cells are seeded into Cytostar 96-well plates in 180 μl for 4 hours at 37° C. and 5% CO2: HCT116 cells at a rate of 2500 cells per well in DMEM medium+10% foetal calf serum+1% L-glutamine and MKN45 cells at a rate of 7500 cells per well in RPMI medium+10% foetal calf serum+1% L-glutamine. After these 4 hours of incubation, the products are added in 10 μl as a 20-fold concentrated solution according to the dilution method mentioned for the ELISA. The products are tested at 10 concentrations in duplicate from 10 000 nM to 0.3 nM with an increment of 3.
After treatment for 72 h, add 10 μl of ^14C-thymidine at 10 μCi/ml to obtain 0.1 μCi per well. The ^14C-thymidine incorporation is measured on a Micro-Beta machine (Perkin-Elmer) after 24 hours of pulse and 96 h of treatment.
All the steps of the assay are automated on BIOMEK 2000 or TECAN stations.

MET [2] = biological target: T1, MET (Homo sapiens, UniProt P08581); test: Test A: HTRF MET assay in 96-well format; type: biochemical; design: The His-Tev-MET (956-1390) recombinant DNA in pFastBac (Invitrogen) is transfected into insect cells; His tag (N, cleaved yes); TEV cleavage site (N); made in house; host or cells: SF21 insect cells (baculovirus, pFastBac); conditions: MET 5 nM, 10 μM ATP
Method: I) Expression and Purification of MET, Cytoplasmic Domain
The His-Tev-MET (956-1390) recombinant DNA in pFastBac (Invitrogen) is transfected into insect cells, and after several viral amplification steps, the final baculovirus stock is tested for the expression of the protein of interest.
After infection for 72 h at 27° C. with the recombinant virus, the SF21 cell cultures are harvested by centrifugation and the cell pellets are stored at −80° C.
The cell pellets are resuspended in lysis buffer (buffer A [50 mM HEPES, pH 7.5, 250 mM NaCl, 10% glycerol, 1 mM TECP]; +cocktail of protease inhibitors, Roche Diagnostics, without EDTA, ref 1873580), stirred at 4° C. until the mixture is homogeneous and then lyzed mechanically using a “Dounce” type apparatus.
After centrifugation, the lysis supernatant is incubated for 2 h at 4° C. with nickel chelate resin (His-Trap 6 Fast Flow™, GE HealthCare). After washing with 20 volumes of buffer A, the suspension is packed into a column, and the proteins are eluted with a gradient of buffer B ([…]+290 mM imidazole).
The fractions containing the protein of interest for the purpose of electrophoretic analysis (SDS PAGE) are combined, concentrated by ultrafiltration (10 kDa cut-off) and injected onto an exclusion chromatography column (Superdex™ 200, GE HealthCare) equilibrated in buffer A.
After enzymatic cleavage of the histidine tag, the protein is reinjected onto a new IMAC nickel chelate chromatography column (His-Trap 6 Fast Flow™, GE HealthCare) equilibrated in buffer A. The fractions eluted with a gradient of buffer B and containing the protein of interest after electrophoresis (SDS PAGE) are finally combined and conserved at −80° C.
For the production of autophosphorylated protein, the previous fractions are incubated for 1 h at ambient temperature after the addition of 2 mM ATP, 2 mM MgCl2, and 4 mM Na3VO4. After the reaction has been stopped with 5 mM of EDTA, the reaction mixture is injected onto a HiPrep desalifying column (GE HealthCare) preequilibrated in buffer A+4 mM Na3VO4, and the fractions containing the protein of interest (SDS PAGE analysis) are combined and stored at −80° C. The degree of phosphorylation is verified by mass spectrometry (LC-MS) and by peptide mapping.
• A) Test A: HTRF MET assay in 96-well format
MET at a final concentration of 5 nM is incubated in a final volume of 50 μl of enzymatic reaction in the presence of the test molecule (for a final concentration range of from 0.17 nM to 10 μM, 3% DMSO final concentration) in 10 mM MOPS buffer, pH 7.4, 1 mM DTT, 0.01% Tween 20. The reaction is initiated with the substrate solution to obtain final concentrations of 1 μg/ml poly-(GAT), 10 μM ATP and 5 mM MgCl2. After incubation for 10 min at ambient temperature, the reaction is stopped with a 30 μl mix so as to obtain a final solution of 50 mM Hepes pH 7.5, 500 mM potassium fluoride, 0.1% BSA and 133 mM EDTA in the presence of 80 ng of streptavidin 61SAXLB Cis-Bio Int. and 18 ng of anti-phosphotyrosine Mab PT66-Europium Cryptate per well. After incubation for 2 hours at ambient temperature, the reading is taken at 2 wavelengths, 620 nm and 665 nm, on a reader for the TRACE/HTRF technique and the % inhibition is calculated from the 665/620 ratios.
Target sequence in this assay (P08581 956-1390): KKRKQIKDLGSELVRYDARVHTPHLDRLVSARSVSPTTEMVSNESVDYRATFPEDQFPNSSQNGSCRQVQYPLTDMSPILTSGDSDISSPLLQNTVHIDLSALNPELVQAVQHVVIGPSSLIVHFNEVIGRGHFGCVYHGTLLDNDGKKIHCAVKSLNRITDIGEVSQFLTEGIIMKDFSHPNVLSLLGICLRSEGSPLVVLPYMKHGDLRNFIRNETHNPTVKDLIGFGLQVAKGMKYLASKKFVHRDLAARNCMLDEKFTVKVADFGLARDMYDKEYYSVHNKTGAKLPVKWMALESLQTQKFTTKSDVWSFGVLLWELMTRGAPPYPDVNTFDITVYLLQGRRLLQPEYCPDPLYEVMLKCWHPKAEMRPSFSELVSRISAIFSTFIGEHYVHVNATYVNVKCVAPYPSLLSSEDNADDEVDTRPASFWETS

MET [3] = biological target: T1, MET; test: Test B: Inhibition of the autophosphorylation of MET; ELISA technique (pppY1230,1234,1235) in MKN45 cells; type: cell-based; design: Seed MKN45 cells into 96-well plates (Cell coat BD polylysine) at 20 000 cells/well; endogenous in cells; host or cells: MKN45 cells; conditions: 1 h treatment, PhosphoMET ELISA
Method: Leave to adhere for 24 hours in an incubator.
The cells are treated the day after seeding with the products at 6 concentrations in duplicate for 1 h. At least 3 control wells are treated with the same final amount of DMSO.
Product dilution: Stock at 10 mM in pure DMSO—range from 10 mM to 30 μM with an increment of 3 in pure DMSO—intermediate 1/50 dilutions in culture medium and then removal of 10 μl added directly to the cells (200 μl): final range of 10 000 to 30 nM.
At the end of the incubation, carefully remove the supernatant and rinse with 200 μl of PBS. Next, place 100 μl of lysis buffer directly in the wells on ice and incubate at 4° C. for 30 minutes. Lysis buffer: 10 mM Tris HCl, pH7.4, 100 mM NaCl, 1 mM EDTA, 1 mM EGTA, 1% Triton X-100, 10% glycerol, 0.1% SDS, 0.5% deoxycholate, 20 mM NaF, 2 mM Na3VO4, 1 mM PMSF and cocktail of antiproteases.
The 100 μl of lysates are transferred into a V-bottomed polypropylene plate and the ELISA is performed immediately, or the plate is frozen at −80° C. • b) PhosphoMET ELISA BioSource Kit KH00281
Into each well of the kit plate, add 70 μl of kit dilution buffer+30 μL of cell lysate or 30 μl of lysis buffer for the blanks. Incubate for 2 h with gentle agitation at ambient temperature.
Rinse the wells 4 times with 400 μl of kit washing buffer. Incubate with 100 μl of anti-phospho MET antibody for 1 hour at ambient temperature.
Rinse the wells 4 times with 400 μl of kit washing buffer. Incubate with 100 μl of anti-rabbit HRP antibody for 30 minutes at ambient temperature (except for the wells of chromogen alone).
Rinse the wells 4 times with 400 μl of kit washing buffer. Introduce 100 μL of chromogen and incubate for 30 minutes in the dark at ambient temperature.
as §1
Target sequence in this assay (P08581 25-1390): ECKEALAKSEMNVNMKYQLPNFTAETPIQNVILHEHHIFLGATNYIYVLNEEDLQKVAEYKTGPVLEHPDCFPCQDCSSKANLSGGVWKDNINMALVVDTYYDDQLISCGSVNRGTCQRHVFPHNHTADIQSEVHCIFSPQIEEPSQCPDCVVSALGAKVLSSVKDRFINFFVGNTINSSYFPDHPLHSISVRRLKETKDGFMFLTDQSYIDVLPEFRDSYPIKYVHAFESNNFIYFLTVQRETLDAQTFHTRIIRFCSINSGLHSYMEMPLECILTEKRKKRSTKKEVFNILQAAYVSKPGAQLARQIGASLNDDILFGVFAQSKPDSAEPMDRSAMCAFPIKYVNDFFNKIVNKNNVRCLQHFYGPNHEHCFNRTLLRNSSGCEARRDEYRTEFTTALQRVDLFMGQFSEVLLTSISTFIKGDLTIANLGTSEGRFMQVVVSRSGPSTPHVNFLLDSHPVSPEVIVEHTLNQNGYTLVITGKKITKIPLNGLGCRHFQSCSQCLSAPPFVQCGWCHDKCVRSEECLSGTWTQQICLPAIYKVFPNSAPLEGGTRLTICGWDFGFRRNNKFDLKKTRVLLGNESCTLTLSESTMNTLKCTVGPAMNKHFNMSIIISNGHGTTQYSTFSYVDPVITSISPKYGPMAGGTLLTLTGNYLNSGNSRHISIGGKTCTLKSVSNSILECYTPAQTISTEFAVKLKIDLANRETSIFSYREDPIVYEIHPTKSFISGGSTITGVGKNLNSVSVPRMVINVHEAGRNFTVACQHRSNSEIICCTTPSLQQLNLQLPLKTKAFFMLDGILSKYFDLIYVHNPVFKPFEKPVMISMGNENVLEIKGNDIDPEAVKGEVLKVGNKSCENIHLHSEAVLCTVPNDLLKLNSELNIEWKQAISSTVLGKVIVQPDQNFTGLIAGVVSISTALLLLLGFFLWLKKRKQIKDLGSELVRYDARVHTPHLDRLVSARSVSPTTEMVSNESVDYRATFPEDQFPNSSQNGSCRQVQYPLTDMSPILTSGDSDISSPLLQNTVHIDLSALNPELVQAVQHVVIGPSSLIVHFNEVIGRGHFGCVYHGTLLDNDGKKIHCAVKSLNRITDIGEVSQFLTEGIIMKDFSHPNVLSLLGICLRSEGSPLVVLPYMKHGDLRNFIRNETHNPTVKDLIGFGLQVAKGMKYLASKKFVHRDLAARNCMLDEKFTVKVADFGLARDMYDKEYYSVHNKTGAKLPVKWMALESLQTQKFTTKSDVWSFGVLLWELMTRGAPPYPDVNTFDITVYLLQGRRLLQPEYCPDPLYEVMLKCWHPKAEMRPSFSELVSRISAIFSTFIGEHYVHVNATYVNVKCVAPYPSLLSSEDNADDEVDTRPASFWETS

Compound | IC50 [1] [nM] | IC50 (MET [2]) [nM] | IC50 (MET [3]) [nM]
CN1CCN(CCNC(=O)Nc2nc3ccc(Sc4nnc5n4N=C(c4ccc(F)cc4)CC5)cc3s2)CC1 [Example 13, 1-(6-{[6-(4-Fluorophenyl)-7,8-dihydro[1,2,4]triazolo[4,3-b]pyridazin-3-yl]sulphanyl}-1,3-benzothiazol-2-yl)-3-[2-(4-methylpiperazin-1-yl)ethyl]urea] | < 1000 | < 100 | < 100
Nc1ccc2nnc(Sc3ccc4nc(NC(=O)NCCN5CCOCC5)sc4c3)n2n1 [Example 29, 1-{6-[(6-Amino[1,2,4]triazolo[4,3-b]pyridazin-3-yl)sulphanyl]-1,3-benzothiazol-2-yl}-3-[2-(morpholin-4-yl)ethyl]urea] | < 1000 | < 100 | 100 to 500
COCCCOC(=O)Nc1nc2ccc(Sc3nnc4ccc(OC)nn34)cc2s1 [Example 46, 3-Methoxypropyl {6-[(6-methoxy[1,2,4]triazolo[4,3-b]pyridazin-3-yl)sulphanyl]-1,3-benzothiazol-2-yl}carbamate] | < 1000 | < 100 | 100 to 500
O=C(NCCN1CCOCC1)Nc1nc2ccc(Sc3nnc4ccc(-n5ccnc5)nn34)cc2s1 [Example 20, 1-(6-{[6-(1H-Imidazol-1-yl)[1,2,4]triazolo[4,3-b]pyridazin-3-yl]sulphanyl}-1,3-benzothiazol-2-yl)-3-[2-(morpholin-4-yl)ethyl]urea] | < 1000 | < 100 | < 100
CCOc1ccc2nnc(Sc3ccc4nc(NC(=O)CCOC)sc4c3)n2n1 [Example 58, N-{6-[(6-Ethoxy[1,2,4]triazolo[4,3-b]pyridazin-3-yl)sulphanyl]-1,3-benzothiazol-2-yl}-3-methoxypropanamide] | < 1000 | < 100 | < 100
CCOc1ccc2nnc(Sc3ccc4nc(NC(=O)NCCN5CCOCC5)sc4c3)n2n1 [Example 37, 1-{6-[(6-Ethoxy[1,2,4]triazolo[4,3-b]pyridazin-3-yl)sulphanyl]-1,3-benzothiazol-2-yl}-3-[2-(morpholin-4-yl)ethyl]urea] | < 1000 | < 100 | < 100
COCCCOC(=O)Nc1nc2ccc(Sc3nnc4ccc(NCCOC)nn34)cc2s1 [Example 47, 3-Methoxypropyl[6-({6-[(2-methoxyethyl)amino][1,2,4]triazolo[4,3-b]pyridazin-3-yl}sulphanyl)-1,3-benzothiazol-2-yl]carbamate] | < 1000 | < 100 | 100 to 500
COC(=O)Nc1nc2ccc(Sc3nnc4ccc(-c5ccc(F)cc5)nn34)cc2[nH]1 [Example 4, Methyl (6-{[6-(4-fluorophenyl)[1,2,4]triazolo[4,3-b]pyridazin-3-yl]sulphanyl}-1H-benzimidazol-2-yl)carbamate] | < 1000 | < 100 | < 100

Next, values leading:

IC50 [1] [nM] | IC50 (MET [2]) [nM] | IC50 (MET [3]) [nM] | Compound
< 1000 | < 100 | 100 to 500 | Nc1nc2ccc(Sc3nnc4ccc(-c5ccccc5F)nn34)cc2s1 [Example 56, 6-{[6-(2-Fluorophenyl)[1,2,4]triazolo[4,3-b]pyridazin-3-yl]sulphanyl}-1,3-benzothiazol-2-amine]
< 1000 | < 100 | < 100 | C[C@@H]1CN(CCNC(=O)Nc2nc3ccc(Sc4nnc5ccc(-c6ccc(F)cc6)nn45)cc3s2)C[C@H](C)O1 [Example 11, 1-{2-[(2R,6S)-2,6-dimethylmorpholin-4-yl]ethyl}-3-(6-{[6-(4-fluorophenyl)-[1,2,4]triazolo[4,3-b]pyridazin-3-yl]sulphanyl}-1,3-benzothiazol-2-yl)urea]
< 1000 | < 100 | < 100 | O=C(NCCN1CCOCC1)Nc1nc2ccc(Sc3nnc4ccc(-c5cccc(F)c5)nn34)cc2s1 [Example 64, 1-(6-{[6-(3-Fluorophenyl)[1,2,4]triazolo[4,3-b]pyridazin-3-yl]sulphanyl}-1,3-benzothiazol-2-yl)-3-[2-(morpholin-4-yl)ethyl]urea]
< 1000 | < 100 | < 100 | CN1CCN(CCNC(=O)Nc2nc3ccc(Sc4nnc5ccc(-c6ccc(F)cc6)nn45)cc3s2)CC1 [Example 14, 1-(6-{[6-(4-Fluorophenyl)[1,2,4]triazolo[4,3-b]pyridazin-3-yl]sulphanyl}-1,3-benzothiazol-2-yl)-3-[2-(4-methylpiperazin-1-yl)ethyl]urea]
< 1000 | < 100 | 100 to 500 | Nc1nc2ccc(Sc3nnc4ccc(OC5CCCCC5)nn34)cc2s1 [Example 63, 6-{[6-(Cyclohexyloxy)[1,2,4]triazolo[4,3-b]pyridazin-3-yl]sulphanyl}-1,3-benzothiazol-2-amine]
< 1000 | < 100 | < 100 | Cn1cc(-c2ccc3nnc(Sc4ccc5nc(N)sc5c4)n3n2)cn1 [Example 43, 6-{[6-(1-Methyl-1H-pyrazol-4-yl)[1,2,4]triazolo[4,3-b]pyridazin-3-yl]sulphanyl}-1,3-benzothiazol-2-amine]
